Earlier results, collected in article PMC2810551 (Chemistry & biology, 2009).

System: CD4+ T cells expressing the MBP Ac1-11 specific Vα2.3/Vβ8.2 TCR
Conditions: immunization with MBP Ac1-11; B10.PL mice; ref [6]

For Ac-ASQKRPSQRSK [MBP Ac1-11], the “activation and expansion of specific CD4+ T cells” value is given as “results in activation and expansion of CD4+ T cells expressing the MBP Ac1-11 specific Vα2.3/Vβ8.2 TCR”.
